Test results taken from PubChem BioAssay AID1963448 (Molecular Pharmacology Branch, DTP, NCI, 2024).

Tested on: 616215-338-R-J1-PDC complex spheroid growth, % test/control
Assay: Anticancer human tumor 616215-338-R-J1-PDC patient-derived colon adenocarcinoma cell line growth inhibition [Asc]
Details: for IC50: curve of first compound; for viability, T/C: stronger effect = lower value
Description: Multicellular complex tumor spheroid response to apoptosis pathway targeting inhibitors Alrizomadlin, Pelcitoclax, and Dasminapant in combination with a variety of drugs and investigational agents in selected tumor cell lines
The MDM2 inhibitor alrizomadlin, the Bcl-2/Bcl-xL inhibitor pelcitoclax, and the IAPs inhibitor dasminapant were evaluated both individually and in combination with standard of care and investigational anticancer small molecules within a complex spheroid model of solid tumors. . Complex spheroids include a stromal component modeled by human endothelial cells (HUVEC) and fibroblasts modeled by human mesenchymal stem cells (MSCs). The concentration ranges selected for each drug and investigational agent were based upon clinically achievable concentrations if the clinical Cmax of the agent was known.
Compounds. The drugs and investigational agents: alrizomadlin (APG-115; NSC831270), pelcitoclax (APG-1252; NSC835773), dasminapant (APG-1387;NSC834197), TAK-243 (NSC785004), copanlisib (NSC809693), olaparib (NSC753686), talazoparib (NSC767125), cobimetinib (NSC 768068), eltanexor (KPT-8602, NSC 794443), abemaciclib (NSC 768073), sotorasib (NSC818433), adagrasib (NSC 831453), MRTX-1133 (NSC 836407), Iadademestat (ORY1001, NSC 806812), and RMC-4630 (NSC839698), were obtained from the NCI Developmental Therapeutics Program Chemical Repository. The FDA-approved anticancer drug set is available from the Developmental Therapeutics Program at https://dtp.cancer.gov/organization/dscb/obtaining/available plates.htm. […] The stock solutions were prepared in dimethyl sulfoxide (DMSO, Sigma-Aldrich, St. Louis, MO, cat. D2650) at 800-fold the tested concentration and stored at -70 degrees C prior to their use. All drugs and investigational agents were tested over a range starting from a high concentration at or near the clinical Cmax and decreasing in half-log increments. If the clinical Cmax for an agent had not been determined, the highest concentration tested was 10 microM.
The patient-derived cancer (PDC) cell lines include five colon adenocarcinomas: 186277-243-T-J2-PDC, 616215-338-R-J1-PDC, 439559-082-T-J2-PDC, 463943-066-T-J2-PDC, and 519858-162-T-J1-PDC; three pancreatic carcinomas: 323965-272-R-J2-PDC, 521955-158-R6-J3-PDC, and 521955-158-R2-J5-PDC; two uterine sarcomas: 327498-152-R-J2-PDC and 993429-296-R-J1-PDC; two rhabdomyosarcomas: 755483-174-R-J1-PDC and 772245-204-R-J1-PDC; two soft tissue sarcomas: 126254-015-R-J1-PDC and 494315-158-R-J1-PDC; two malignant fibrous histiocytomas: 317291-083-R-J1-PDC and 596521-263-R-J1-PDC; two breast carcinomas: 171881-019-R-J1-PDC and 885512-296-R-J2-PDC; and one ovarian carcinoma: 6556581-035-R-J-PDC were obtained from the NCI PDMR, (https://pdmr.cancer.gov). The established cell lines HSSY-2 synovial sarcoma (RRID:CVCL 8719), SYO-1 synovial sarcoma (RRID:CVCL_7146), MPNST malignant peripheral neural sheath tumor were obtained from the Sloan Kettering Institute. The following established cell lines were purchased from the American Type Culture Collection (ATCC, Manassas, VA), Sor the received from the NCI repository:, PANC-1 pancreatic carcinoma (CRL-1469, RRID:CVCL_0480), OVCAR-5 ovarian carcinoma (RRID:CVCL_1628), OVCAR-8 ovarian carcinoma (RRID:CVCL_1629), , MCF-7 breast carcinoma (CRL-12584, RRID:CVCL_0031), MDA-MB-231 breast carcinoma (CRL-12532, RRID:CVCL_0062), NCI-H1876 small cell lung carcinoma (CRL-5902, RRID:CVCL_1503), NCI-H510A small cell lung carcinoma (HTB-184, RRID:CVCL_1565), NCI-H1417 (CRL-5869, RRID:CVCL_1469), and NCI-H196 small cell lung carcinoma (CRL-5823, RRID:CVCL_1509). Dr. Peter Houghton (Greehey Children's Cancer Research Institute, University of Texas Health Science Center, San Antonio, TX) provided Rh-18 rhabdomyosarcoma (RRID:CVCL_1659). Pooled donor human umbilical vein endothelial cells (HUVEC, Lonza, cat. CC-2519) and human mesenchymal stem cells (hMSC, Lonza, cat. PT-2501) were purchased from Lonza (Walkersville, MD).
Cell Culture. […]

[1] = second compound 0.03 µM, first compound 0.00316 µM
[2] = second compound 0.03 µM, first compound 0.01 µM
[3] = second compound 0.03 µM, first compound 0.0316 µM
[4] = second compound 0.03 µM, first compound 0.1 µM
[5] = second compound 0.0949 µM, first compound 0.00316 µM
[6] = second compound 0.0949 µM, first compound 0.01 µM
[7] = second compound 0.0949 µM, first compound 0.0316 µM
[8] = second compound 0.0949 µM, first compound 0.1 µM
[9] = second compound 0.3 µM, first compound 0.00316 µM
[10] = second compound 0.3 µM, first compound 0.01 µM
[11] = second compound 0.3 µM, first compound 0.0316 µM
[12] = second compound 0.3 µM, first compound 0.1 µM
[13] = second compound 0.949 µM, first compound 0.00316 µM
[14] = second compound 0.949 µM, first compound 0.01 µM
[15] = second compound 0.949 µM, first compound 0.0316 µM
[16] = second compound 0.949 µM, first compound 0.1 µM
[17] = second compound 3 µM, first compound 0.00316 µM
[18] = second compound 3 µM, first compound 0.01 µM
[19] = second compound 3 µM, first compound 0.0316 µM
[20] = second compound 3 µM, first compound 0.1 µM
[21] = second compound 0.03 µM, first compound 0.316 µM
[22] = second compound 0.03 µM, first compound 1 µM
[23] = second compound 0.0949 µM, first compound 0.316 µM
[24] = second compound 0.0949 µM, first compound 1 µM
[25] = second compound 0.3 µM, first compound 0.316 µM
[26] = second compound 0.3 µM, first compound 1 µM
[27] = second compound 0.949 µM, first compound 0.316 µM
[28] = second compound 0.949 µM, first compound 1 µM
[29] = second compound 3 µM, first compound 0.316 µM
[30] = second compound 3 µM, first compound 1 µM
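Note: spheroids exposed to agents for seven days before readout.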
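Throughout, for viability, T/C: 100% = DMSO vehicle control viability.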

| SMILES | IC50 (second compound 0.03 µM) [nM] | IC50 (second compound 0.0949 µM) [nM] | IC50 (second compound 0.3 µM) [nM] | IC50 (second compound 0.949 µM) [nM] | IC50 (second compound 3 µM) [nM] | viability, T/C [1] [%] | viability, T/C [2] [%] | viability, T/C [3] [%] | viability, T/C [4] [%] | viability, T/C [5] [%] | viability, T/C [6] [%] | viability, T/C [7] [%] | viability, T/C [8] [%] | viability, T/C [9] [%] | viability, T/C [11] [%] | viability, T/C [12] [%] | viability, T/C [15] [%] | viability, T/C [16] [%] | viability, T/C [19] [%] | viability, T/C [20] [%] | further results |
| --- | --- | --- | --- | --- | --- | --- | --- | --- | --- | --- | --- | --- | --- | --- | --- | --- | --- | --- | --- | --- | --- |
| Cn1ncnc1[C@H]1c2n[nH]c(=O)c3cc(F)cc(c23)N[C@@H]1c1ccc(F)cc1 + CCN1C(C(=O)NC23CCC(C(=O)O)(CC2)CC3)C(c2cccc(Cl)c2F)C2(C(=O)Nc3cc(Cl)ccc32)C12CCCCC2 | > 100 | > 100 | > 100 | > 100 | 3.14 | 97.8 | 105 | 92.3 | 85.5 | 89 | 85 | 81.5 | 75.6 | 67.6 | 58.9 | 61.8 | 57.2 | 61.3 | 47.5 | 48.3 | viability, T/C (second compound 0.03 µM, first compound 0.000316 µM): 107%; viability, T/C (second compound 0.03 µM, first compound 0.001 µM): 103%; viability, T/C (second compound 0.0949 µM, first compound 0.000316 µM): 99.2%; viability, T/C (second compound 0.0949 µM, first compound 0.001 µM): 95.5%; viability, T/C (second compound 0.3 µM, first compound 0.000316 µM): 69.6%; viability, T/C (second compound 0.3 µM, first compound 0.001 µM): 70.9%; viability, T/C [10]: 56.7%; viability, T/C (second compound 0.949 µM, first compound 0.000316 µM): 65.3%; viability, T/C (second compound 0.949 µM, first compound 0.001 µM): 66.5%; viability, T/C [13]: 67.4%; viability, T/C [14]: 56.8%; viability, T/C (second compound 3 µM, first compound 0.000316 µM): 50.2%; viability, T/C (second compound 3 µM, first compound 0.001 µM): 55.5%; viability, T/C [17]: 49.9%; viability, T/C [18]: 46.1% |
| O=C(c1cc(Cc2n[nH]c(=O)c3ccccc23)ccc1F)N1CCN(C(=O)C2CC2)CC1 + CCN1C(C(=O)NC23CCC(C(=O)O)(CC2)CC3)C(c2cccc(Cl)c2F)C2(C(=O)Nc3cc(Cl)ccc32)C12CCCCC2 | > 10000 | > 10000 | > 10000 | > 10000 | > 10000 |  |  | 101 | 99.1 |  |  | 99 | 100 |  | 73.3 | 72.6 | 74.7 | 80.8 | 61.4 | 62.5 | viability, T/C [21]: 99.4%; viability, T/C [22]: 99.8%; viability, T/C (second compound 0.03 µM, first compound 3.16 µM): 94.1%; viability, T/C (second compound 0.03 µM, first compound 10 µM): 77.6%; viability, T/C [23]: 97.8%; viability, T/C [24]: 92.2%; viability, T/C (second compound 0.0949 µM, first compound 3.16 µM): 81.2%; viability, T/C (second compound 0.0949 µM, first compound 10 µM): 67.5%; viability, T/C [25]: 78%; viability, T/C [26]: 71.8%; viability, T/C (second compound 0.3 µM, first compound 3.16 µM): 61.4%; viability, T/C (second compound 0.3 µM, first compound 10 µM): 65.2%; viability, T/C [27]: 72.4%; viability, T/C [28]: 68.5%; viability, T/C (second compound 0.949 µM, first compound 3.16 µM): 67%; viability, T/C (second compound 0.949 µM, first compound 10 µM): 55.7%; viability, T/C [29]: 60.5%; viability, T/C [30]: 60.1%; viability, T/C (second compound 3 µM, first compound 3.16 µM): 51.8%; viability, T/C (second compound 3 µM, first compound 10 µM): 48.8% |
| O=C(c1ccc(F)c(F)c1Nc1ccc(I)cc1F)N1CC(O)([C@@H]2CCCCN2)C1 + CCN1C(C(=O)NC23CCC(C(=O)O)(CC2)CC3)C(c2cccc(Cl)c2F)C2(C(=O)Nc3cc(Cl)ccc32)C12CCCCC2 | 70 | 52.9 | 16.4 | 5.81 | < 3.16 | 89.9 | 88.6 | 90.1 | 32.3 | 93.8 | 93.6 | 74.5 | 19.6 | 59.8 | 38.8 | 3 | 23.3 | 2.29 | 3.79 | 0.28 | viability, T/C [21]: 0.26%; viability, T/C [22]: 0.38%; viability, T/C [23]: 0.23%; viability, T/C [24]: 0.37%; viability, T/C [10]: 57.7%; viability, T/C [25]: 1.18%; viability, T/C [26]: 1.93%; viability, T/C [13]: 55.5%; viability, T/C [14]: 44.2%; viability, T/C [27]: 1.21%; viability, T/C [28]: 3.73%; viability, T/C [17]: 40.3%; viability, T/C [18]: 36%; viability, T/C [29]: 0.56%; viability, T/C [30]: 2.69% |
